These results are taken from PMC12624727, “Benzodeazaoxaflavin Sirtuin Inhibitors Inhibit Schistosoma mansoni Sirt2 and Cause Phenotypic Changes and Lethality in Schistosomula and Adult Worm Stages” (ACS Infectious Diseases, 2025).

Where only a bound is given, the exact number is not on record here.

Series [1] has as its system adult S. mansoni (Puerto Rican strain) worm pairs. In words: microbe, parasite or virus in culture. The settings on record: Schistosoma mansoni, 24 h, read-out: mortality in adult worm pairs.
The nature of series [2]: MTT viability assay on BJ fibroblasts. The settings on record: human. For orientation: Tetrazolium assays rely on reduction of a dye to a coloured formazan, in cell work by metabolically active cells.
Series [3] relates to S. mansoni (Puerto Rican) worm pairs. The series is described as follows: Worm pairing of adult worm pairs (Puerto Rican strain). The settings on record: % of DMSO control. The format is cell-based, Schistosoma mansoni.
The subject of series [4] is S. mansoni newly transformed schistosomula (NTS), Liberian strain. In words: NTS (Liberian strain) in vitro viability assay. It is filed as cell-based, Schistosoma mansoni. The settings on record: for percentage of reduction of NTS viability, 72 h: SD in brackets; for IC50: 72 h, Liberian strain.
Series [5] has as its system histone H3 / H4 acetylation in S. mansoni (Puerto Rican strain) worm pairs. In words: Western blot of histone and lysine acetylation in worm extracts. The settings on record: 10 μM, 48 h; histone-enriched fraction. The format is cell-based, Schistosoma mansoni.
Series [6] concerns the target SmSirt2 (Schistosoma mansoni, UniProt T1VXA1). In words: In vitro SmSirt2 inhibition assay, homogeneous fluorescence-based, ZMAL substrate. It is filed as biochemical. How it is done: We first improved the synthetic method to obtain most of the BDFs analogues 1–12 (Figure ), and we tested them against recombinant SmSirt2 using a homogeneous, fluorescent-based in vitro assay with (Z)-(Ac)-Lys-7-amino-4-methylcoumarin (ZMAL) as the substrate.
The BDF4 compounds 1–12 were tested for their inhibitory activity against SmSirt2 using a fluorescence-based assay with ZMAL as the substrate. Their activity against hSirt2 has been previously reported. ,
For the screening of compounds 1–12, a homogeneous fluorescence-based assay previously described by some of us was used to determine SmSirt2 activity.

Series [7] relates to hSirt2. The settings on record: ref footnote b (reference number not given); cited from earlier work.
For series [8], the system named is S. mansoni (Puerto Rican) worm pairs. The series is described as follows: Egg laying by adult worm pairs (Puerto Rican strain). It is filed as cell-based, Schistosoma mansoni. The note with it: % of DMSO control.
Series [9] has as its system adult S. mansoni (Liberian strain) worm pairs. In words: Adult worm (Liberian strain) in vitro viability assay. The format is cell-based, Schistosoma mansoni. The settings on record: for adult worms' percentage of viability reduction, 72 h: SD in brackets; for IC50: Schistosoma mansoni, 72 h, Liberian strain.
Series [10] concerns adult S. mansoni (Puerto Rican strain) worm pairs. The note with it: Puerto Rican strain; for lethality of adult worm pairs: 20 μM, by 72 h.
The nature of series [11]: in vitro. The settings on record: human.
The test system of series [12] is schistosomula. On the set-up: method as in not given. The note with it: 48 h of treatment, 10–20 μM; ref not given; cited from earlier work.
Series [13] has as its system cytochrome c release in S. mansoni (Puerto Rican strain) worms. The series is described as follows: Western blot of cytosolic cytochrome c in worm extracts. The format is cell-based, Schistosoma mansoni. The settings on record: 25 μM, 48 h (legend of Figure 5). How it is done: To determine if the Sirt2 inhibitors trigger apoptosis through the cytochrome c pathway, we examined cytochrome c release from mitochondria.
5 Effects of selected Sirt2 inhibitors on cytosolic cytochrome c expression. Representative immunoblots of cytosolic protein fractions extracted from S. mansoni adult worm pairs are shown. The worms were treated with the indicated Sirt2 inhibitors (10 μM) for 48 h. DMSO (vehicle), TSA (1 μM, 24 h), a HDAC pan-inhibitor, and salermide (Sal 25 μM, 48 h), a Sirt1/Sirt2 inhibitor, were used as controls. The α-tubulin signal was used for normalization. Quantitation of cytochrome c relative to the vehicle-treated sample is shown.
Ten pairs of adult parasites were treated with selected Sirt inhibitors for either 24 or 48 h at partially lethal and sublethal concentrations. The concentrations of compounds were chosen based on the viability curve. Positive controls in the experiments included TSA, a pan-HDAC inhibitor, and salermide, a hSirt1/2 inhibitor, while DMSO (vehicle) served as negative control. Parasites were lysed in a 0.5% Triton PBS buffer by strokes, and the lysates were then centrifuged to collect the soluble fractions (cytosol). The insoluble fractions were extracted with 0.25 N HCl at +4 °C for 18 h, followed by neutralization with 1/10 volume of 2 N NaOH. Samples were analyzed using 15% SDS-PAGE and Western blotting. […]
(In general: A western blot detects proteins with antibodies after separation by electrophoresis.)

Sequence of SmSirt2 (T1VXA1 entry or part of it): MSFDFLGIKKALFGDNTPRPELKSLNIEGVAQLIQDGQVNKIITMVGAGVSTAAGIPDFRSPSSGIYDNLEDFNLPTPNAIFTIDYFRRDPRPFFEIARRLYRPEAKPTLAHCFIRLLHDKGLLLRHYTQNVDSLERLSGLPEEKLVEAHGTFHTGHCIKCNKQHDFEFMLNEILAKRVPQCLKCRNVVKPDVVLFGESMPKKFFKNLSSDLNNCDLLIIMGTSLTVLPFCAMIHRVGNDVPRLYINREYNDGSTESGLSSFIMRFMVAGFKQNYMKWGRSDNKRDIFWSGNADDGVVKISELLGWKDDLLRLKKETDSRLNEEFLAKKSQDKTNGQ

A word on the mortality: it is the share of the test organisms that died. As usually defined, the IC50 is the midpoint of a concentration-inhibition curve. A word on the inhibition: it is how much of the control response was suppressed. A high value points to strong suppression. As to `O=c1nc2oc3ccc4ccccc4c3cc-2c(=O)n1C1CCCCC1` [Compound 7, 10-Cyclohexyl-9H-benzo[5,6]chromeno[2,3-d]pyrimidine-9,11(10H)-dione], the mortality at 20 µM in series [1] lay in the range of 70 to 80%. This molecule also had a 50% inhibitory concentration (IC50) at 72 h in series [2] of 60 µM. For the same molecule, the “% worm pairing” value is listed as 100% in series [3] (1 μM, 24 h, single experiment); 100% in series [3] (1 μM, 48 h, single experiment); 100% in [3] (1 μM, 72 h, single experiment); 100 (0) % in series [3] (10 μM, 24 h, SD in brackets); 100 (0) % in series [3] (10 μM, 48 h, SD in brackets); 100 (0) % in series [3] (10 μM, 72 h, SD in brackets). Besides, the “% worm pairing” value in series [3] (20 μM, 24 h, SD in brackets) is 0 (0) %; in [3] (20 μM, 48 h, SD in brackets) it was 0 (0) %; in series [3] (20 μM, 72 h, SD in brackets), 6 (11) %. For the same molecule, the “percentage of reduction of NTS viability, 72 h” value is reported as 43.8 (2.1) % in series [4] (0.1 μM), 67.7 (0) % in series [4] (1 μM), 100 (0) % in series [4] (10 μM) and 100 (0) % in [4] (20 μM). Also, the IC50 in series [4] is 0.21 µM; in series [4] (Schistosoma mansoni), around 0.2 µM; in series [7], 58.5 ± 2.9 µM; in [9], 1.24 µM. For the same molecule, the “acetylation of histone H3 (pan-acetylation)” value in series [5] is “increase in acetylation of histone H3”. Further, the “acetylation of histone H4 (pan-acetylation)” value in series [5] is “but not histone H4”. The inhibition at 50 µM in series [6] was 24.6%. Also, the “% egg laying” value in series [8] (1 μM, 24 h, single experiment) was 75%; in series [8] (1 μM, 48 h, single experiment), 66%; in [8] (1 μM, 72 h, single experiment), 75%; in series [8] (10 μM, 24 h, SD in brackets) it was 32 (4) %; in series [8] (10 μM, 48 h, SD in brackets), 46 (6) %; in [8] (10 μM, 72 h, SD in brackets), 44 (10) %. Also, the “% egg laying” value in series [8] (20 μM, 24 h, SD in brackets) is reported as 14 (12) %; in [8] (20 μM, 48 h, SD in brackets), 9 (8) %. In addition, the “adult worms' percentage of viability reduction, 72 h” value in series [9] (1 μM) was 23.9 (0) %; in series [9] (20 μM), 100 (0) %. Further, the “lethality of adult worm pairs” value in [10] is on record as “complete lethality”.
For the molecule `O=c1nc2oc3ccc4ccccc4c3cc-2c(=O)n1Cc1ccccc1` [Compound 9, 10-Benzyl-9H-benzo[5,6]chromeno[2,3-d]pyrimidine-9,11(10H)-dione], the mortality at 20 µM in series [1] was in the range of 70 to 80%. In addition, the IC50 at 72 h in series [2] was determined as 50.6 µM. Further, the “% worm pairing” value is recorded as 100% in [3] (1 μM, 24 h, single experiment); 100% in series [3] (1 μM, 48 h, single experiment); 100% in series [3] (1 μM, 72 h, single experiment); 80 (20) % in series [3] (10 μM, 24 h, SD in brackets); 93 (11) % in series [3] (10 μM, 48 h, SD in brackets); 100 (0) % in series [3] (10 μM, 72 h, SD in brackets). The “% worm pairing” value in [3] (20 μM, 24 h, SD in brackets) is on record as 6 (11) %; in [3] (20 μM, 48 h, SD in brackets), 20 (30) %; in series [3] (20 μM, 72 h, SD in brackets) it was 20 (30) %. The “percentage of reduction of NTS viability, 72 h” value in series [4] (0.1 μM) was 36 (2) %; in series [4] (1 μM), 100 (0) %; in [4] (10 μM) it was 100 (0) %; in series [4] (20 μM) it was 100 (0) %. The IC50 in series [4] is 0.11 µM; in series [4] (Schistosoma mansoni) it was around 0.1 µM; in series [6] (read-out: IC50 SmSirt2, ZMAL substrate), 7.3 ± 0.5 µM; in [7], 15.9 ± 0.6 µM; in series [9], below 1 µM. Also, the “acetylation of histone H3 (pan-acetylation)” value in series [5] was “increase in acetylation of histone H3”. Besides, in series [5], the “acetylation of histone H4 (pan-acetylation)” value is “but not histone H4”. For the same molecule, the “% egg laying” value in series [8] (1 μM, 24 h, single experiment) is recorded as 98%; in series [8] (1 μM, 48 h, single experiment), 98%; in [8] (1 μM, 72 h, single experiment), 126%; in [8] (10 μM, 24 h, SD in brackets), 72 (74) %; in [8] (10 μM, 48 h, SD in brackets), 71 (36) %; in [8] (10 μM, 72 h, SD in brackets), 67 (28) %. For the same molecule, the “% egg laying” value is reported as 11 (7) % in series [8] (20 μM, 24 h, SD in brackets); 8 (5) % in series [8] (20 μM, 48 h, SD in brackets); 7 (6) % in [8] (20 μM, 72 h, SD in brackets). Besides, the “adult worms' percentage of viability reduction, 72 h” value in [9] (20 μM) is reported as 61.2 (5.6) %. In addition, the “lethality of adult worm pairs” value in series [10] is recorded as “complete lethality”.
In the case of `CC(C)=CCC[C@]1(C)C=Cc2c(O)c3c(c(CC=C(C)C)c2O1)O[C@]12C(=C[C@@H]4C[C@H]1C(C)(C)O[C@@]2(C/C=C(/C)C(=O)O)C4=O)C3=O` [GA, gambogic acid], in [11], the IC50 at 72 h was determined as 0.34 µM.
As to `CC(C(=O)Nc1cccc(/N=C/c2c(O)ccc3ccccc23)c1)c1ccccc1` (stereo not shown) [salermide], the “DNA fragmentation in schistosomula (TUNEL assay)” value in series [12] is “cause DNA fragmentation”. For the same molecule, in [13], the “cytosolic cytochrome c level” value is reported as “increased levels of cytochrome c”. The “effect on adult worm viability” value in [10] (after 72 h, same conditions) is given as “did not affect adult worm viability”.
